In patent US6376666B1 (Nauchno-Issledovatelsky Institut Farmakologii Rossiiskoi …, priority 1994, dated 2002):

Test system: cats
Assay: hemodynamics and activity of intact heart in cats under anesthesia
Type: in vivo
Conditions: for Cardiac volume, change from basal level / Heart rate, change from basal level / Mean blood flow accelaration (aortic), change from basal level / Mean blood pressure, change from basal level / Stroke volume, change from basal level: cats
Protocol: The effects of compounds on the hemodynamics and activity of intact heart were studied in cats under anesthesia. The experiments were carried out under conditions of open chest. The phase curve of aortic blood flow was the main index of cardiac activity. The compounds were administered i.v. in physiological solution. The t-Student' test was used to estimate the statistical significance.

[1] = 1.0 mg/kg i.v., after injection
[2] = 2.0 mg/kg i.v., after injection

CN(C)CCSc1nc2ccccc2n1CCc1ccccc1 [Compound XX, 1-(β-Phenylethyl)-2-[2-(dimethylamino)ethylthio]-benzimidazole]
effect on contractile function of heart, in words (cats i.v., same doses as bradycardia): slightly enhanced the contractility of myocardium
duration of bradycardia after administration (cats i.v., VIII 1,0, IX 0,5 and 1,0, XX 1,0 and 2,0 mg/kg): 30 min
effect on heart rate, in words (cats i.v., VIII 1,0, IX 0,5 and 1,0, XX 1,0 and 2,0 mg/kg, XXIII 1.0, verapamil 0.5 mg/kg): expressed bradycardia
Cardiac volume, change from basal level (1.0 mg/kg i.v., after 2 min): +2.5 ± 0.9%
Heart rate, change from basal level (1.0 mg/kg i.v., after 2 min): −4.9 ± 1.5 %
Mean blood flow accelaration (aortic), change from basal level (1.0 mg/kg i.v., after 2 min): −1.4 +1.8%
Mean blood pressure, change from basal level (1.0 mg/kg i.v., after 2 min): ± 5.1 ± 1.7 %
Stroke volume, change from basal level (1.0 mg/kg i.v., after 2 min): +7.9 ± 1.6 %
Cardiac volume, change from basal level (1.0 mg/kg i.v., after 5 min): −3.9 ± 1.5%
Heart rate, change from basal level (1.0 mg/kg i.v., after 5 min): −5.2 ± 2.1%
Mean blood flow accelaration (aortic), change from basal level (1.0 mg/kg i.v., after 5 min): −3.6 ± 2.4%
Mean blood pressure, change from basal level (1.0 mg/kg i.v., after 5 min): +2.0 ± 1.0%
Stroke volume, change from basal level (1.0 mg/kg i.v., after 5 min): +1.7 ± 3.4%
Cardiac volume, change from basal level (1.0 mg/kg i.v., after 10 min): −3.9 ± 2.8%
Heart rate, change from basal level (1.0 mg/kg i.v., after 10 min): −4.3 ± 1.9%
Mean blood flow accelaration (aortic), change from basal level (1.0 mg/kg i.v., after 10 min): −0.6 ± 2.1%
Mean blood pressure, change from basal level (1.0 mg/kg i.v., after 10 min): +1.7 ± 1.2%
Stroke volume, change from basal level (1.0 mg/kg i.v., after 10 min): +0.6 ± 3.5%
Cardiac volume, change from basal level (1.0 mg/kg i.v., after 20 min): −4.1 ± 2.8%
Heart rate, change from basal level (1.0 mg/kg i.v., after 20 min): −5.0 ± 4.2%
Mean blood flow accelaration (aortic), change from basal level (1.0 mg/kg i.v., after 20 min): −2.8 ± 2.6%
Mean blood pressure, change from basal level (1.0 mg/kg i.v., after 20 min): +3.3 ± 2.4%
Stroke volume, change from basal level (1.0 mg/kg i.v., after 20 min): +1.4 ± 3.8%
Cardiac volume, change from basal level (1.0 mg/kg i.v., after 30 min): −7.0 ± 3.4%
Heart rate, change from basal level (1.0 mg/kg i.v., after 30 min): −5.0 ± 4.2%
Mean blood flow accelaration (aortic), change from basal level (1.0 mg/kg i.v., after 30 min): −3.2 ± 1.8%
Mean blood pressure, change from basal level (1.0 mg/kg i.v., after 30 min): +0.3 ± 3.0%
Stroke volume, change from basal level (1.0 mg/kg i.v., after 30 min): −0.5 ± 4.4%
Heart rate, change from basal level [1]: −7.9 ± 1.7 %
Mean blood flow accelaration (aortic), change from basal level [1]: +10.7 ± 3.3 %
Mean blood pressure, change from basal level [1]: −0.9 ± 2.7%
Stroke volume, change from basal level [1]: +25.2 ± 2.6 %
Cardiac volume, change from basal level (2.0 mg/kg i.v., after 2 min): +1.2 ± 2.8%
Heart rate, change from basal level (2.0 mg/kg i.v., after 2 min): −5.2 ± 1.8 %
Mean blood flow accelaration (aortic), change from basal level (2.0 mg/kg i.v., after 2 min): −3.0 ± 3.9%
Mean blood pressure, change from basal level (2.0 mg/kg i.v., after 2 min): ± 4.6 ± 3.5%
Stroke volume, change from basal level (2.0 mg/kg i.v., after 2 min): +6.9 ± 3.1%
Cardiac volume, change from basal level (2.0 mg/kg i.v., after 5 min): −0.5 ± 3.1%
Heart rate, change from basal level (2.0 mg/kg i.v., after 5 min): −4.5 ± 1.4 %
Mean blood flow accelaration (aortic), change from basal level (2.0 mg/kg i.v., after 5 min): +1.6 ± 5.1%
Mean blood pressure, change from basal level (2.0 mg/kg i.v., after 5 min): +3.3 ± 2.5%
Stroke volume, change from basal level (2.0 mg/kg i.v., after 5 min): +4.2 ± 3.8%
Cardiac volume, change from basal level (2.0 mg/kg i.v., after 10 min): −1.4 ± 3.0%
Heart rate, change from basal level (2.0 mg/kg i.v., after 10 min): −3.1 ± 1.6%
Mean blood flow accelaration (aortic), change from basal level (2.0 mg/kg i.v., after 10 min): −1.0 ± 3.1%
Mean blood pressure, change from basal level (2.0 mg/kg i.v., after 10 min): −1.0 ± 1.8%
Stroke volume, change from basal level (2.0 mg/kg i.v., after 10 min): +1.8 ± 2.1%
Cardiac volume, change from basal level (2.0 mg/kg i.v., after 20 min): −4.7 ± 5.2%
Heart rate, change from basal level (2.0 mg/kg i.v., after 20 min): −3.6 ± 1.7%
Mean blood flow accelaration (aortic), change from basal level (2.0 mg/kg i.v., after 20 min): −3.8 ± 4.0%
Mean blood pressure, change from basal level (2.0 mg/kg i.v., after 20 min): −5.3 ± 0.8 %
Stroke volume, change from basal level (2.0 mg/kg i.v., after 20 min): −1.1 ± 5.4%
Cardiac volume, change from basal level (2.0 mg/kg i.v., after 30 min): −5.5 ± 5.2%
Heart rate, change from basal level (2.0 mg/kg i.v., after 30 min): −4.0 ± 2.2%
Mean blood flow accelaration (aortic), change from basal level (2.0 mg/kg i.v., after 30 min): −6.2 ± 4.9%
Mean blood pressure, change from basal level (2.0 mg/kg i.v., after 30 min): −9.6 ± 3.5%
Stroke volume, change from basal level (2.0 mg/kg i.v., after 30 min): +1.7 ± 3.9%
Cardiac volume, change from basal level [2]: +22.7 ± 6.6 %
Heart rate, change from basal level [2]: −10.7 ± 2.5 %
Mean blood flow accelaration (aortic), change from basal level [2]: +22.5 ± 9.3%
Mean blood pressure, change from basal level [2]: −13.6 ± 5.1%
Stroke volume, change from basal level [2]: +38.5 ± 10.6 %
